Columns and labels:
[1] = DRUGMATRIX: Sodium/nucleoside co-transporter radioligand binding (ligand: nitrobenzylthioinosine); format: cell membranes, Cavia porcellus, Dunkin-Hartley, Cerebral cortex, Membrane; conditions: Not Active = under 50% inhibition at 10 µM
[2] = target: T1, Alpha-1D adrenergic receptor (Homo sapiens, UniProt P25100); format: cell membranes, HEK293, Membrane; conditions: hek293; further: in other assays of this panel Not Active means under 50% inhibition at 10 µM
T1 sequence (P25100 whole entry): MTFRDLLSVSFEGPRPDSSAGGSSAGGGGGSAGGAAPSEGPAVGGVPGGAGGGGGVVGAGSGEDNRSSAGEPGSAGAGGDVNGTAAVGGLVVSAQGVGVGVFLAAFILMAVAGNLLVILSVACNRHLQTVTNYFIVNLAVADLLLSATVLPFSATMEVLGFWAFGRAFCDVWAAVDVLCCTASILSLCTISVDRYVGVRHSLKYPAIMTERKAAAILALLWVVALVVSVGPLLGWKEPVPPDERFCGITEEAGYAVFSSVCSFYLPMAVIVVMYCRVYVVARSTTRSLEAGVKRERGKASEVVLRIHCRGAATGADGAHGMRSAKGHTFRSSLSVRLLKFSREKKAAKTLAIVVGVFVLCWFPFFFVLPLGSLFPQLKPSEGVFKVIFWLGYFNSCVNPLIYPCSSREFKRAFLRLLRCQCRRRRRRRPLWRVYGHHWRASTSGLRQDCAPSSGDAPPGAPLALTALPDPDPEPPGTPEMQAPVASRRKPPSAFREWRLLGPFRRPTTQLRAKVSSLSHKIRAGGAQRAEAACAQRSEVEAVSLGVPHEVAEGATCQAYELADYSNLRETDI

[3] = target: T2, Alpha-2A adrenergic receptor (Homo sapiens, UniProt P08913); format: cell membranes, Sf9, Membrane; conditions: sf9; further: in other assays of this panel Not Active means under 50% inhibition at 10 µM
T2 sequence (P08913 whole entry): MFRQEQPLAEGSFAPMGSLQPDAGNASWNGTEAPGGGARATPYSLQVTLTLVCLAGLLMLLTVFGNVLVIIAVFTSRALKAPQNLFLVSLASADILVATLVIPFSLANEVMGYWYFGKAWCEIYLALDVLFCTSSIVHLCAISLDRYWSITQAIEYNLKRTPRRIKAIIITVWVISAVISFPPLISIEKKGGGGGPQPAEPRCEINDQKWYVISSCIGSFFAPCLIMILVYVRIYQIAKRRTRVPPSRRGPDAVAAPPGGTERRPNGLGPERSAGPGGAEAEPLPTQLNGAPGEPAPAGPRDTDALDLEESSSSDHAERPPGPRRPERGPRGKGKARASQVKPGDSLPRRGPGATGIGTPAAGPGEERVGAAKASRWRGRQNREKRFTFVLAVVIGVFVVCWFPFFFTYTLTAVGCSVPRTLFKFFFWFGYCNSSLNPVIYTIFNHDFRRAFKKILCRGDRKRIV

[4] = target: Aldo-keto reductase family 1 member B1 (Rattus norvegicus, UniProt P07943); format: tissue-based, Lens of camera-type eye;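 further: inhibition of aldose reductase enzyme activity, measured with DL-glyceraldehyde as the substrate; in other assays of this panel Not Active means under 50% inhibition at 10 µM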
[5] = DRUGMATRIX: Atrial Natriuretic Factor (ANF) radioligand binding (ligand: [125I] ANF (rat)); format: cell membranes, Cavia porcellus, Dunkin-Hartley, Adrenal gland, Membrane; conditions: Not Active = under 50% inhibition at 10 µM
Substance-P receptor = Substance-P receptor (Homo sapiens, UniProt P25103); format: cell membranes, CHO, Membrane; conditions: cho; further: in other assays of this panel Not Active means under 50% inhibition at 10 µM
Chain of Substance-P receptor (P25103 whole entry): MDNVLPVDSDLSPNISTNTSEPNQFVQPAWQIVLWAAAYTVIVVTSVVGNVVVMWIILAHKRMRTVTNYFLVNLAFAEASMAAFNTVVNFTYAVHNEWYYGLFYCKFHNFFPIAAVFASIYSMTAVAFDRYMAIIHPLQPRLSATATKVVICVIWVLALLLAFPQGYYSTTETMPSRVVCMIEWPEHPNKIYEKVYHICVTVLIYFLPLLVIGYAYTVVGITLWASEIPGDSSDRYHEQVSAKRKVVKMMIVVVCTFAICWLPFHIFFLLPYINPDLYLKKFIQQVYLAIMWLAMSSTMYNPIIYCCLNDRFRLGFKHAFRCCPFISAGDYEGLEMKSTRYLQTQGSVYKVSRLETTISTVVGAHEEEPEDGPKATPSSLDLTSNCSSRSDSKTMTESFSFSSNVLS

[6] = DRUGMATRIX: Glutamate, NMDA, Agonism radioligand binding (ligand: [3H] CGP-39653); format: cell membranes, Rattus norvegicus, Wistar, Cerebral cortex, Membrane; conditions: Not Active = under 50% inhibition at 10 µM
[7] = DRUGMATRIX: Leukotriene, BLT (LTB4) radioligand binding (ligand: [3H]LTB4); format: cell membranes, Membrane; conditions: u-937; Not Active = under 50% inhibition at 10 µM
Melanocortin receptor 5 = Melanocortin receptor 5 (Homo sapiens, UniProt P33032); format: cell membranes, HEK293, Membrane; conditions: hek293; further: in other assays of this panel Not Active means under 50% inhibition at 10 µM
Chain of Melanocortin receptor 5 (P33032 whole entry): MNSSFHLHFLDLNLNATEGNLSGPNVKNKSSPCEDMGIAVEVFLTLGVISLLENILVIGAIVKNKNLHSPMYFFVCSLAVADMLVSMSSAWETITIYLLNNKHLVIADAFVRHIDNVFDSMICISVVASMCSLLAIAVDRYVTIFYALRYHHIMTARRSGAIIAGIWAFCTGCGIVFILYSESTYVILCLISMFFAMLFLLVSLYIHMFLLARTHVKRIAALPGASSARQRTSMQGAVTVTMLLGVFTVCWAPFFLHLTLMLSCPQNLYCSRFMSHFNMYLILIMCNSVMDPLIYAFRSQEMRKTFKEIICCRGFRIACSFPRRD

[8] = target: T3, Muscarinic acetylcholine receptor M2 (Homo sapiens, UniProt P08172); format: cell membranes, CHO-K1, Membrane; conditions: cho-k1; further: in other assays of this panel Not Active means under 50% inhibition at 10 µM
T3 sequence (P08172 whole entry): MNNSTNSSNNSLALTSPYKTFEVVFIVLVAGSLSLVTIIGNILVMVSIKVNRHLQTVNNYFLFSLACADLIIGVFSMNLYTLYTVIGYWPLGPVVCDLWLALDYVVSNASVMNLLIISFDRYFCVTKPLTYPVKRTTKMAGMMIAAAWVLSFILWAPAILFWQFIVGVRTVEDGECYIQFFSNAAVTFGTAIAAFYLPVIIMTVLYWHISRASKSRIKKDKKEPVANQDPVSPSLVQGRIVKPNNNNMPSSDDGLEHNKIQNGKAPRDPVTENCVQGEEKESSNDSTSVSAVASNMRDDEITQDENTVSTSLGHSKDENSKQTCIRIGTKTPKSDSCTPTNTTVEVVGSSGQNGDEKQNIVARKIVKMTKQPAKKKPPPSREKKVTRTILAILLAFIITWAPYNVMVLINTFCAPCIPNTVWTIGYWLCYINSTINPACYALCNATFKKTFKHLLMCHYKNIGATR

Adenosine receptor A2a = Adenosine receptor A2a (Homo sapiens, UniProt P29274); assay: DRUGMATRIX: Adenosine A2A radioligand binding (ligand: […]); format: cell membranes, HEK293, Membrane; conditions: hek293; Not Active = under 50% inhibition at 10 µM
Chain of Adenosine receptor A2a (P29274 whole entry): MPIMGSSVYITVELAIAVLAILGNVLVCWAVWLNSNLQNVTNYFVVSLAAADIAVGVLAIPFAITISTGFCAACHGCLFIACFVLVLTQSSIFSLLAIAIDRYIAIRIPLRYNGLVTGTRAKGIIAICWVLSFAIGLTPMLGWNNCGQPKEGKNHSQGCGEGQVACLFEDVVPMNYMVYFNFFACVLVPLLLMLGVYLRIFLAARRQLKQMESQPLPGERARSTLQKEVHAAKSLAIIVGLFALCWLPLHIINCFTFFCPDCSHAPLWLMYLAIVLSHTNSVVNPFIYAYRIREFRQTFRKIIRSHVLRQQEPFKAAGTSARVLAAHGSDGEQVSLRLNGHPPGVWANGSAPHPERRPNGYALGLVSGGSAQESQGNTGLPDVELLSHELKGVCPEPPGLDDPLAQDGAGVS

Adenosine receptor A3 = target: T4, Adenosine receptor A3 (Homo sapiens, UniProt P0DMS8); format: cell membranes, CHO-K1, Membrane; conditions: cho-k1
T4 sequence (P0DMS8 whole entry): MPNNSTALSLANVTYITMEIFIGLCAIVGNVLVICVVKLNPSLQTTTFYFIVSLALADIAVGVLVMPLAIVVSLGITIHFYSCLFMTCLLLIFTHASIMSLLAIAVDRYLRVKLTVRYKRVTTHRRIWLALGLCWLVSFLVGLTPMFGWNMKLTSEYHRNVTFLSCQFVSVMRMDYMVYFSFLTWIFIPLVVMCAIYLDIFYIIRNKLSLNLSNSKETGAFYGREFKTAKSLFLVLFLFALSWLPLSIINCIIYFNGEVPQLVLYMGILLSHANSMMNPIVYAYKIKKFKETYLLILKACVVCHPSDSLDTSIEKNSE

COc1ccc2c(c1)c(CC(=O)OCC(=O)O)c(C)n2C(=O)c1ccc(Cl)cc1 [ACEMETACIN]
Not Active: IC50 [1] | Ki [1] | IC50 [2] | IC50 [3] | IC50 [4] | IC50 [5] | Ki [5] | IC50 (Substance-P receptor) | IC50 [6] | Ki [6] | IC50 [7] | Ki [7] | IC50 (Melanocortin receptor 5) | IC50 [8] | IC50 (Adenosine receptor A2a) | IC50 (Adenosine receptor A3)

CCCSc1ccc2nc(NC(=O)OC)[nH]c2c1 [ALBENDAZOLE]
Not Active: IC50 [1] | Ki [1] | IC50 [2] | IC50 [3] | IC50 [4] | IC50 [5] | Ki [5] | IC50 (Substance-P receptor) | IC50 [6] | Ki [6] | IC50 [7] | Ki [7] | IC50 (Melanocortin receptor 5) | IC50 [8] | IC50 (Adenosine receptor A2a) | IC50 (Adenosine receptor A3)

Cc1[nH]cnc1CN1CCc2c(c3ccccc3n2C)C1=O [ALOSETRON]
Not Active: IC50 [1] | Ki [1] | IC50 [2] | IC50 [3] | IC50 [4] | IC50 [5] | Ki [5] | IC50 (Substance-P receptor) | IC50 [6] | Ki [6] | IC50 [7] | Ki [7] | IC50 (Melanocortin receptor 5) | IC50 [8] | IC50 (Adenosine receptor A2a) | IC50 (Adenosine receptor A3)

O=c1cc(-c2ccccc2)oc2c1ccc1ccccc12 [ALPHA-NAPHTHOFLAVONE]
Not Active: IC50 [1] | Ki [1] | IC50 [2] | IC50 [3] | IC50 [4] | IC50 [5] | Ki [5] | IC50 (Substance-P receptor) | IC50 [6] | Ki [6] | IC50 [7] | Ki [7] | IC50 (Melanocortin receptor 5) | IC50 [8] | IC50 (Adenosine receptor A2a) | IC50 (Adenosine receptor A3)

NCC[C@H](O)C(=O)N[C@@H]1C[C@H](N)[C@@H](O[C@H]2O[C@H](CN)[C@@H](O)[C@H](O)[C@H]2O)[C@H](O)[C@H]1O[C@H]1O[C@H](CO)[C@@H](O)[C@H](N)[C@H]1O [AMIKACIN]
Not Active: IC50 [1] | Ki [1] | IC50 [2] | IC50 [3] | IC50 [4] | IC50 [5] | Ki [5] | IC50 (Substance-P receptor) | IC50 [6] | Ki [6] | IC50 [7] | Ki [7] | IC50 (Melanocortin receptor 5) | IC50 [8] | IC50 (Adenosine receptor A2a) | IC50 (Adenosine receptor A3)

CC1(C)S[C@@H]2[C@H](NC(=O)[C@H](N)c3ccc(O)cc3)C(=O)N2[C@H]1C(=O)O [AMOXICILLIN]
Not Active: IC50 [1] | Ki [1] | IC50 [2] | IC50 [3] | IC50 [4] | IC50 [5] | Ki [5] | IC50 (Substance-P receptor) | IC50 [6] | Ki [6] | IC50 [7] | Ki [7] | IC50 (Melanocortin receptor 5) | IC50 [8] | IC50 (Adenosine receptor A2a) | IC50 (Adenosine receptor A3)

CCOC(=O)OC(C)OC1=C(C(=O)Nc2ccccn2)N(C)S(=O)(=O)c2ccccc21 (centres undefined) [AMPIROXICAM]
Not Active: IC50 [1] | Ki [1] | IC50 [2] | IC50 [3] | IC50 [4] | IC50 [5] | Ki [5] | IC50 (Substance-P receptor) | IC50 [6] | Ki [6] | IC50 [7] | Ki [7] | IC50 (Melanocortin receptor 5) | IC50 [8] | IC50 (Adenosine receptor A2a) | IC50 (Adenosine receptor A3)

N#C[C@H](O[C@@H]1O[C@H](CO[C@@H]2O[C@H](CO)[C@@H](O)[C@H](O)[C@H]2O)[C@@H](O)[C@H](O)[C@H]1O)c1ccccc1 [AMYGDALIN]
Not Active: IC50 [1] | Ki [1] | IC50 [2] | IC50 [3] | IC50 [4] | IC50 [5] | Ki [5] | IC50 (Substance-P receptor) | IC50 [6] | Ki [6] | IC50 [7] | Ki [7] | IC50 (Melanocortin receptor 5) | IC50 [8] | IC50 (Adenosine receptor A2a) | IC50 (Adenosine receptor A3)

N=C(N)NCCCCNC(=N)N.O=S(=O)(O)O [ARCAINE SULFATE]
Not Active: IC50 [1] | Ki [1] | IC50 [2] | IC50 [3] | IC50 [4] | IC50 [5] | Ki [5] | IC50 (Substance-P receptor) | IC50 [6] | Ki [6] | IC50 [7] | Ki [7] | IC50 (Melanocortin receptor 5) | IC50 [8] | IC50 (Adenosine receptor A2a) | IC50 (Adenosine receptor A3)

Source: ChEMBL document CHEMBL1909046, “DrugMatrix in vitro pharmacology data”
